Data from patent publication US5104870A, “Heterocyclic pharmaceutical compounds and use” (Burroughs Wellcome Co., priority 1989, dated 1992).
Where a name gives a salt, the structure may show the parent alone.

The compounds below were run on tetrabenazine-induced sedation (assay: Antitetrabenazine test (prevention of tetrabenazine-induced sedation)). Conditions: Mus musculus, ip; CDl male mice; i.p. as hydrochloride salt in saline 30 min before tetrabenazine hydrochloride 35 mg/kg i.p.; exploratory behavior scored 30 min later; read-out: ED50 (amount of the test compound required to reverse the tetrabenazine effects in 50 percent of the animals tested).
Assay type: in vivo
Description: Prevention on of tetrabenazine-induced sedation was measured using a modification of the method of Vernier et al., First Hahnemann Symposium on Psychosomatic Medicine, ed. Nodim and Moyer, pub Lea and Febiger, Philadelphia. 1962.
Mice, groups of 12 CDl males each, were injected intraperitoneally (i.p.) with the hydrochloride salt of a compound of formula (I) in physiological saline solution or with physiological saline solution alone. Thirty minutes later each of the mice was injected (i.p.. 35 mg/kg) with a solution of tetrabenazine hydrochloride. Thirty minutes after the injection of tetrabenazine each mouse was examined for its level of exploratory behavior which was scored on a modification of the arbitrary scale defined by Vernier et al The result reported in Table I as the ED50 value is the amount of the test compound required to reverse the tetrabenazine effects in 50 percent of the animals tested.
In the case of `C[C@H]1CO[C@](O)(c2cc(F)cc(F)c2)[C@@H](C)N1.Cl` (relative stereo) [Example 1, (+-)-(2R*,3R*,5S*)-2-(3,5-Difluorophenyl)-3,5-dimethyl-2-morpholinol hydrochloride], the ED50 is reported as 2 mg/kg. In the case of `C[C@@H]1CO[C@@](O)(c2cc(F)cc(F)c2)[C@H](C)N1C` (relative stereo) [Example 4, (+-)-(2R*,3R*,5S*)-2-(3,5-Difluorophenyl)-3,4,5,trimethyl-2-morpholinol hydrochloride], the ED50 is reported as 3 mg/kg. Work on `C[C@@H]1CO[C@@](O)(c2cc(F)cc(F)c2)[C@H](C)N1.Cl` [Example 2, (2S,3S,5R)-2-(3,5-difluorophenyl)-3,5-dimethyl-2-morpholinol hydrochloride] yielded an ED50 of 5 mg/kg. In the case of `C[C@@H]1CO[C@@](O)(c2cc(F)cc(F)c2)[C@H](C)N1C` [Example 3, (2S,3S,5R)-2-(3.5.Difluorophenyl)-3,4,5,trimethyl-2-morpholinol hydrochloride, one-quarter hydrate], the ED50 is reported as 0.6 mg/kg. Compound `CCN1[C@H](C)CO[C@@](O)(c2cc(F)cc(F)c2)[C@@H]1C` [Example 5, (2S,3S,5R)-2-(3,5-Difluorophenyl)-4-ethyl-3,5-dimethyl-2-morpholinol hydrochloride, monohydrate] has an ED50 of 3 mg/kg.
